Where a name gives a salt, the structure may show the parent alone. Read-outs that look alike come from different tables or passages of the source.
Tested on: iCell cardiomyocytes (human iPSC-derived cardiomyocytes)
Experiment: Intracellular Ca2+ flux / beating parameters in iCell cardiomyocytes (FLIPR tetra), 90 min or 24 h
Format: cell-based
Conditions: for activity at 0.01 µM / activity at 0.1 µM / activity at 1 µM / activity at 10 µM / activity at 100 µM: Homo sapiens, Cardiomyocyte, 0.00 µM = 100.00; for activity at 0.1 µM: 0.10 µM
Procedure, shortened: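 Gelatin-plated iCell cardiomyocytes (5,000/well) were dye-loaded for 2 h at 37 °C, then exposed for 90 min or 24 h to PCBs/metabolites (5× plates at 0.05–500 µM; 0.5% DMSO final) in triplicate. Ca2+ flux was read for 100 s at 8 Hz and 37 °C. Peak height, frequency, spacing CV and decay/rise ratio were vehicle-normalized and fitted with a four-parameter logistic model, with POD set at 1 SD of vehicle.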

[1] = 1.5 h, read-out: cm.amp.avg.90min
[2] = 1.5 h, read-out: cm.amp.cv.90min
[3] = 1.5 h, read-out: cm.decay.rise.90min
[4] = 1.5 h, read-out: cm.spacing.cv.90min
[5] = 24 h, read-out: cm.amp.avg.24hrs
[6] = 24 h, read-out: cm.amp.cv.24hrs
[7] = 24 h, read-out: cm.decay.rise.24hrs
[8] = 24 h, read-out: cm.spacing.cv.24hrs

## O=S(=O)(O)Oc1ccc(-c2cccc(Cl)c2)cc1Cl [4-yl PCB 11 sulfate]
[1]
  activity at 0.01 µM: 98.2%
  activity at 0.1 µM: 93.1%
  activity at 1 µM: 99.5%
  activity at 10 µM: 96.9%
  activity at 100 µM: 45.7%
[2]
  activity at 0.01 µM: 88.2%
  activity at 0.1 µM: 97.2%
  activity at 1 µM: 116%
  activity at 10 µM: 93.4%
  activity at 100 µM: 62.5%
1.5 h, read-out: cm.bpm.90min
  activity at 0.01 µM: 97.8%
  activity at 0.1 µM: 100%
  activity at 1 µM: 99.1%
  activity at 10 µM: 99.1%
  activity at 100 µM: 15.1%
[3]
  activity at 0.01 µM: 98.1%
  activity at 0.1 µM: 102%
  activity at 1 µM: 99.7%
  activity at 10 µM: 98.1%
  activity at 100 µM: 39.8%
[4]
  activity at 0.01 µM: 99.6%
  activity at 0.1 µM: 99%
  activity at 1 µM: 103%
  activity at 10 µM: 96.5%
  activity at 100 µM: 107%
[5]
  activity at 0.01 µM: 98.1%
  activity at 0.1 µM: 78.9%
  activity at 1 µM: 88.9%
  activity at 10 µM: 88.7%
  activity at 100 µM: 0%
[6]
  activity at 0.01 µM: 94.2%
  activity at 0.1 µM: 34.3%
  activity at 1 µM: 119%
  activity at 10 µM: 119%
  activity at 100 µM: 0%
24 h, read-out: cm.bpm.24hrs
  activity at 0.01 µM: 97.4%
  activity at 0.1 µM: 46.8%
  activity at 1 µM: 93.6%
  activity at 10 µM: 93.6%
  activity at 100 µM: 0%
[7]
  activity at 0.01 µM: 110%
  activity at 0.1 µM: 51.8%
  activity at 1 µM: 100%
  activity at 10 µM: 104%
  activity at 100 µM: 0%
[8]
  activity at 0.01 µM: 104%
  activity at 0.1 µM: 46.3%
  activity at 1 µM: 87.1%
  activity at 10 µM: 98.9%
  activity at 100 µM: 0%

## Clc1ccc(-c2cc(Cl)c(Cl)c(Cl)c2)cc1Cl [PCB 126, 3,3′,4,4′,5-pentachlorobiphenyl]
iPSC-CMs, concentration-response 0.01-100 μM, 90 min and 24 h
  inotropic effect (cell beating parameters): positive inotropic effects
